What follows are compounds tested on HeLa cells (assay: Transfection of pEGFP-C1 reporter plasmid into HeLa cells, GFP expression by flow cytometry). Settings: HeLa cells 48 h after transfection with reporter plasmid, flow cytometry.
Type: cell-based, human
Procedure: The corresponding cationic lipid (1 mM in methanol) were mixed in different proportions with DOPE (10 mg/mL in chloroform) and the organic solvent removed by evaporation in an oven (37° C.) overnight. The resultant thin films were then hydrated with PBS. The solutions were vortexed (10-20 s) and incubated at ambient temperature for 20 min. Plasmid DNA or siRNA solution (0.04 mg/mL in PBS or another isotonic solution) was subsequently added and the solution vortexed (10-20 s). The lipoplexes were incubated at room temperature for 20 min before being used.
Human HeLa cells were grown in RPMI supplemented with 4 mM glutamine, 10% FCS and 100 units/ml penicillin/streptomycin (RPMI-CM) until 80% confluence. HEK293 and B16F10 cells were grown in DMEM supplemented with 4 mM glutamine, 10% FCS and 100 units/ml penicillin/streptomycin (DMEM-CM) until 80% confluence. Cells were then suspended using trypsin/EDTA and counted. 2×10^4 cells in 150 μL of media per well were seeded in 96 well plates and incubated overnight. The day afterwards, the different lipoplex formulations were added. Each experiment was performed in quadruplicate, using Effectene® Transfection Reagent (Qiagen), Lipofectamine™ 2000 (Invitrogen) and Fugene (Roche) as positive controls and untreated cells as negative controls. After two days incubation at 37° C. and 5% CO2 (the change of media after transfection was not necessary), the green fluorescent protein (GFP) expression, as a consequence of transfecting the pEGFP-C1, was evidenced using a fluorescent microscope (Leica) and measured by flow cytometry. For the flow cytometry analysis, cells were washed twice with PBS, detached with trypsin/EDTA, harvested with 2% ferum bovine serum (FBS) in PBS, centrifuged and resuspended with 2% FBS in PBS and analyzed using a BD FACSaria flow cytometer. Transfection efficiency was measured as percentage of transfected cells.
Reagents that obtained greater than 50% transfection were also analyzed against HEK293 and B16F10 cell lines. Transfection results (+ percentages of transfection between 5-25%; ++ percentages of transfection between 25-50%; N.D. not determined). MTT toxicity assay results are indicated between brackets with 100% being cell viability of untreated cells.

SMILES | Transfection results (percentage of transfected cells), HeLa
CCCCCCCC/C=C\CCCCCCCC(=O)NCCN(CCNC(=O)CCCCCCC/C=C\CCCCCCCC)C(=O)/C=C\C(=O)N[C@@H](CCCNC(=N)N)C(=O)N[C@@H](CCCNC(=N)N)C(=O)N[C@@H](CCCNC(=N)N)C(N)=O.O=C(O)C(F)(F)F.O=C(O)C(F)(F)F.O=C(O)C(F)(F)F [Compound A3-Sp2-O] | ++ (percentages of transfection between 25-50%)
CCCCCCCCCCCCCCCCCCCC(=O)NCCN(CCNC(=O)CCCCCCCCCCCCCCCCCCC)C(=O)/C=C\C(=O)N[C@@H](CCCNC(=N)N)C(N)=O.O=C(O)C(F)(F)F [Compound A1-Sp2-A] | + (percentages of transfection between 5-25%)
CCCCCCCC/C=C\CCCCCCCC(=O)NCCCN(CCCNC(=O)CCCCCCC/C=C\CCCCCCCC)C(=O)CCC(=O)N[C@@H](CCCNC(=N)N)C(=O)N[C@@H](CCCNC(=N)N)C(=O)N[C@@H](CCCNC(=N)N)C(N)=O.O=C(O)C(F)(F)F.O=C(O)C(F)(F)F.O=C(O)C(F)(F)F [Compound A3-Sp3-O] | ++ (percentages of transfection between 25-50%)
CCCCCCCCCCCCCCCC(=O)NCCN(CCNC(=O)CCCCCCCCCCCCCCC)C(=O)CCC(=O)N[C@@H](CCCNC(=N)N)C(N)=O.O=C(O)C(F)(F)F [Compound A1-Sp1-P] | + (percentages of transfection between 5-25%)
CCCCCCCCCCCCCCCCCCCC(=O)NCCCN(CCCNC(=O)CCCCCCCCCCCCCCCCCCC)C(=O)/C=C\C(=O)N[C@@H](CCCNC(=N)N)C(N)=O.O=C(O)C(F)(F)F [Compound A1-Sp4-A] | + (percentages of transfection between 5-25%)
CCCCCCCCCCCCCCCCCCCCCCCC(=O)NCCN(CCNC(=O)CCCCCCCCCCCCCCCCCCCCCCC)C(=O)/C=C\C(=O)N[C@@H](CCCNC(=N)N)C(=O)N[C@@H](CCCNC(=N)N)C(N)=O.O=C(O)C(F)(F)F.O=C(O)C(F)(F)F [Compound A2-Sp2-L] | + (percentages of transfection between 5-25%)
CCCCCCCCCCCCCCCCCC(=O)NCCN(CCNC(=O)CCCCCCCCCCCCCCCCC)C(=O)CCC(=O)N[C@@H](CCCNC(=N)N)C(=O)N[C@@H](CCCNC(=N)N)C(=O)N[C@@H](CCCNC(=N)N)C(N)=O.O=C(O)C(F)(F)F.O=C(O)C(F)(F)F.O=C(O)C(F)(F)F [Compound A3-Sp1-S] | ++ (percentages of transfection between 25-50%)
CCCCCCCCCCCCCCCCCC(=O)NCCCN(CCCNC(=O)CCCCCCCCCCCCCCCCC)C(=O)/C=C\C(=O)N[C@@H](CCCNC(=N)N)C(N)=O.O=C(O)C(F)(F)F [Compound A1-Sp4-S] | + (percentages of transfection between 5-25%)
CCCCCCCCCCCCCCCCCC(=O)NCCN(CCNC(=O)CCCCCCCCCCCCCCCCC)C(=O)/C=C\C(=O)N[C@@H](CCCNC(=N)N)C(N)=O.O=C(O)C(F)(F)F [Compound A1-Sp2-S] | + (percentages of transfection between 5-25%)
CCCCCCCCCCCCCCCCCC(=O)NCCN(CCNC(=O)CCCCCCCCCCCCCCCCC)C(=O)CCC(=O)N[C@@H](CCCNC(=N)N)C(N)=O.O=C(O)C(F)(F)F [Compound A1-Sp1-S] | + (percentages of transfection between 5-25%)
CCCCCCCCCCCCCCCCCCCCCCCC(=O)NCCCN(CCCNC(=O)CCCCCCCCCCCCCCCCCCCCCCC)C(=O)CCC(=O)N[C@@H](CCCNC(=N)N)C(N)=O.O=C(O)C(F)(F)F [Compound A1-Sp3-L] | + (percentages of transfection between 5-25%)
CCCCCCCCCCCCCCCCCCCC(=O)NCCN(CCNC(=O)CCCCCCCCCCCCCCCCCCC)C(=O)CCC(=O)N[C@@H](CCCNC(=N)N)C(=O)N[C@@H](CCCNC(=N)N)C(N)=O.O=C(O)C(F)(F)F.O=C(O)C(F)(F)F [Compound A2-Sp1-A] | + (percentages of transfection between 5-25%)
CCCCCCCC/C=C\CCCCCCCC(=O)NCCN(CCNC(=O)CCCCCCC/C=C\CCCCCCCC)C(=O)CCC(=O)N[C@@H](CCCNC(=N)N)C(N)=O.O=C(O)C(F)(F)F [Compound A1-Sp1-O] | + (percentages of transfection between 5-25%)
CCCCCCCC/C=C\CCCCCCCC(=O)NCCCN(CCCNC(=O)CCCCCCC/C=C\CCCCCCCC)C(=O)/C=C\C(=O)N[C@@H](CCCNC(=N)N)C(N)=O.O=C(O)C(F)(F)F [Compound A1-Sp4-O] | + (percentages of transfection between 5-25%)
CCCCCCCCCCCCCCCCCCCC(=O)NCCCN(CCCNC(=O)CCCCCCCCCCCCCCCCCCC)C(=O)CCC(=O)N[C@@H](CCCNC(=N)N)C(=O)N[C@@H](CCCNC(=N)N)C(N)=O.O=C(O)C(F)(F)F.O=C(O)C(F)(F)F [Compound A2-Sp3-A] | + (percentages of transfection between 5-25%)
CCCCCCCCCCCCCCCCCCCCCCCC(=O)NCCN(CCNC(=O)CCCCCCCCCCCCCCCCCCCCCCC)C(=O)/C=C\C(=O)N[C@@H](CCCNC(=N)N)C(=O)N[C@@H](CCCNC(=N)N)C(=O)N[C@@H](CCCNC(=N)N)C(N)=O.O=C(O)C(F)(F)F.O=C(O)C(F)(F)F.O=C(O)C(F)(F)F [Compound A3-Sp2-L] | + (percentages of transfection between 5-25%)
CCCCCCCCCCCCCCCCCCCC(=O)NCCN(CCNC(=O)CCCCCCCCCCCCCCCCCCC)C(=O)/C=C\C(=O)N[C@@H](CCCNC(=N)N)C(=O)N[C@@H](CCCNC(=N)N)C(N)=O.O=C(O)C(F)(F)F.O=C(O)C(F)(F)F [Compound A2-Sp2-A] | ++ (percentages of transfection between 25-50%)
CCCCCCCC/C=C\CCCCCCCC(=O)NCCN(CCNC(=O)CCCCCCC/C=C\CCCCCCCC)C(=O)/C=C\C(=O)N[C@@H](CCCNC(=N)N)C(N)=O.O=C(O)C(F)(F)F [Compound A1-Sp2-O] | + (percentages of transfection between 5-25%)
CCCCCCCCCCCCCCCCCC(=O)NCCN(CCNC(=O)CCCCCCCCCCCCCCCCC)C(=O)/C=C\C(=O)N[C@@H](CCCNC(=N)N)C(=O)N[C@@H](CCCNC(=N)N)C(=O)N[C@@H](CCCNC(=N)N)C(N)=O.O=C(O)C(F)(F)F.O=C(O)C(F)(F)F.O=C(O)C(F)(F)F [Compound A3-Sp2-S] | ++ (percentages of transfection between 25-50%)
CCCCCCCCCCCCCCCCCC(=O)NCCCN(CCCNC(=O)CCCCCCCCCCCCCCCCC)C(=O)/C=C\C(=O)N[C@@H](CCCNC(=N)N)C(=O)N[C@@H](CCCNC(=N)N)C(N)=O.O=C(O)C(F)(F)F.O=C(O)C(F)(F)F [Compound A2-Sp4-S] | + (percentages of transfection between 5-25%)
CCCCCCCCCCCCCCCCCCCC(=O)NCCCN(CCCNC(=O)CCCCCCCCCCCCCCCCCCC)C(=O)CCC(=O)N[C@@H](CCCNC(=N)N)C(N)=O.O=C(O)C(F)(F)F [Compound A1-Sp3-A] | + (percentages of transfection between 5-25%)
CCCCCCCCCCCCCCCCCCCC(=O)NCCCN(CCCNC(=O)CCCCCCCCCCCCCCCCCCC)C(=O)/C=C\C(=O)N[C@@H](CCCNC(=N)N)C(=O)N[C@@H](CCCNC(=N)N)C(=O)N[C@@H](CCCNC(=N)N)C(N)=O.O=C(O)C(F)(F)F.O=C(O)C(F)(F)F.O=C(O)C(F)(F)F [Compound A3-Sp4-A] | + (percentages of transfection between 5-25%)
CCCCCCCCCCCCCCCCCCCC(=O)NCCN(CCNC(=O)CCCCCCCCCCCCCCCCCCC)C(=O)/C=C\C(=O)N[C@@H](CCCNC(=N)N)C(=O)N[C@@H](CCCNC(=N)N)C(=O)N[C@@H](CCCNC(=N)N)C(N)=O.O=C(O)C(F)(F)F.O=C(O)C(F)(F)F.O=C(O)C(F)(F)F [Compound A3-Sp2-A] | + (percentages of transfection between 5-25%)
CCCCCCCCCCCCCCCC(=O)NCCCN(CCCNC(=O)CCCCCCCCCCCCCCC)C(=O)/C=C\C(=O)N[C@@H](CCCNC(=N)N)C(=O)N[C@@H](CCCNC(=N)N)C(N)=O.O=C(O)C(F)(F)F.O=C(O)C(F)(F)F [Compound A2-Sp4-P] | + (percentages of transfection between 5-25%)
CCCCCCCCCCCCCCCC(=O)NCCCN(CCCNC(=O)CCCCCCCCCCCCCCC)C(=O)CCC(=O)N[C@@H](CCCNC(=N)N)C(=O)N[C@@H](CCCNC(=N)N)C(N)=O.O=C(O)C(F)(F)F.O=C(O)C(F)(F)F [Compound A2-Sp3-P] | + (percentages of transfection between 5-25%)
CCCCCCCCCCCCCCCCCCCCCCCC(=O)NCCN(CCNC(=O)CCCCCCCCCCCCCCCCCCCCCCC)C(=O)/C=C\C(=O)N[C@@H](CCCNC(=N)N)C(N)=O.O=C(O)C(F)(F)F [Compound A1-Sp2-L] | + (percentages of transfection between 5-25%)
CCCCCCCCCCCCCCCC(=O)NCCN(CCNC(=O)CCCCCCCCCCCCCCC)C(=O)/C=C\C(=O)N[C@@H](CCCNC(=N)N)C(N)=O.O=C(O)C(F)(F)F [Compound A1-Sp2-P] | ++ (percentages of transfection between 25-50%)

From patent US8759104B2, “Cationic lipids” (The University Court of the University of Edinburgh, priority 2010, dated 2014)
